Data taken from article PMC9938201, “Neuroprotective and antioxidant properties of new quinolylnitrones in in vitro and in vivo cerebral ischemia models” (Scientific Reports, 2023).

Target: T1, soybean lipoxygenase (LOX) (Glycine max, UniProt P08170)
T1 construct: gene LOX1.1
T1 sequence (P08170 1-839): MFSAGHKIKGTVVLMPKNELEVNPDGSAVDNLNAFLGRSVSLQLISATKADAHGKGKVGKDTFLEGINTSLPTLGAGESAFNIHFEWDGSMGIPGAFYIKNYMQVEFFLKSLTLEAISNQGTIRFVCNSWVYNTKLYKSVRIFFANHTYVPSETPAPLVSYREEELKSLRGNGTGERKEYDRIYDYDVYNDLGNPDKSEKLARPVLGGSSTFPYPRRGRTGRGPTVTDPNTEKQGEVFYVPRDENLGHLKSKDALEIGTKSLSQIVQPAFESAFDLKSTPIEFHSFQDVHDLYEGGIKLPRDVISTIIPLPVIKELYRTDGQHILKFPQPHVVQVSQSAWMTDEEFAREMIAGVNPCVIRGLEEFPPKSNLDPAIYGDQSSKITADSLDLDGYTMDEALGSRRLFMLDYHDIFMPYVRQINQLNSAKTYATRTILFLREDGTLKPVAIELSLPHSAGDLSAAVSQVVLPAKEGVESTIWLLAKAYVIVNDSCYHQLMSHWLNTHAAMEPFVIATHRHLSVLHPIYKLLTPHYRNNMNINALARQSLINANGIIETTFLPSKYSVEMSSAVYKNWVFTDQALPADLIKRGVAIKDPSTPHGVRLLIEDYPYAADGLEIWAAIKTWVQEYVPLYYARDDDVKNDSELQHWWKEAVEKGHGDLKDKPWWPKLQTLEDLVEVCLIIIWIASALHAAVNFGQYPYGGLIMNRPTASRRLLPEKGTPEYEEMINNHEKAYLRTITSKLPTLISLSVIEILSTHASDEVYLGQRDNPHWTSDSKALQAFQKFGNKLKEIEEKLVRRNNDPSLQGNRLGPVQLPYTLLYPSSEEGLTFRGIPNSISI
Assay: UV absorbance at […] nm, sodium linoleate oxidation by soybean LOX, pH […]
Format: biochemical

CC(C)(C)/[N+]([O-])=C/c1ccc2cccc(O)c2n1 [QN5]
IC50: 5 µM
